# Experiments:
# [1] = test system: mouse peritoneal macrophages; assay: Macrophage memory experiments (re-stimulation after washout); assay type: cell-based
# Experimental: For macrophage memory experiments, macrophages were stimulated overnight with IL4, IFNγ, and/or emodin. Following, the cells were washed 3× with PBS and cultured for 2 or 5 days in DMEM with 2% FBS. The media were changed every 2 days. The cells were then re-stimulated with IL4 or LPS for 6 h.
# For qPCR, macrophages were lysed with Qiazol and RNA was extracted using Zymo research Direct-zol RNA isolation kit. cDNA was then made from 1 microgram of RNA using iScript cDNA Synthesis Kit (Bio-Rad Life Science). Run conditions were 95° C. for 10 s, 58° C. for 15 s, 70° C. for 15 s. Samples were run in duplicate on a Bio-rad CFX Real Time thermocycler.
# 4T1 tumors = assay: 4T1 breast tumor model in BALB/c mice; assay type: in vivo
# Experimental: (§1) C57BL/6 and BALB/c mice (8-12 weeks, female) were purchased from Jackson Labs (Bar Harbor, Me.). They were housed at the University of South Carolina Animal Research Facility, and all procedures were approved by the Institutional Animal Care and Use Committee. EO771 or 4T1 cells (2×10^5) in 20 μL of PBS were injected into the 4th pair of mammary glands on C57BL/6 mice or BALB/C, respectively, on Day 0. Starting on Day 1, emodin (40 mg/kg) or vehicle (2% DMSO) was injected intraperitoneally in 1 ml PBS once daily. The tumor size was measured using a caliper every 2-4 days, and the tumor volume was calculated using a formula: V (mm^3)=L (major axis)×W^2 (minor axis)/2. Mice were sacrificed at various time points.
# The tumor draining lymph nodes and tumors were collected, and cell populations were analyzed using flow cytometry. Briefly, cells were stained with anti-CD3 FITC, anti-CD4 APC or anti-CD8 APC, and anti-CD25 PE (Biolegend) in PBS containing 2% FBS for 30 min at 4° C. Samples were washed twice with staining buffer and analyzed by flow cytometry using a BD FACS flow cytometer and CXP software version 2.2 (BD Biosciences, San Jose, Calif.). Data were collected for 20,000 live events per sample.
# (§2) At sacrifice, tumors were embedded in OCT. They were then cut into 8 μm thick frozen sections and placed on slides. For immunohistochemistry staining, the sections were fixed with 4% paraformaldehyde for 10 min, and then blocked with 0.01 M glycine containing 0.1% Triton x-100. Next, the sections were blocked with 5% BSA. They were then incubated in primary antibody overnight at 4° C.: anti-F4/80 (1:50, Biolegend), anti-pSTAT6 (1:50, Cell Signaling), or anti-C/EBPβ (1:50, Santa Cruz). The sections were washed with PBS and then incubated with secondary antibodies for 1 h at room temperature. The sections were then stained with DAPI (1 μg/mL) and coverslipped with DABCO. Slides were imaged using a Zeiss LSM 510 Confocal microscope (Zeiss, Peabody, Mass.). For quantitative analysis, the number of positive cells was manually counted in six random fields of view per section. CD31 staining was performed according to standard methodology. Slides were imaged on a Nikon ECLIPSE E600 microscope (Nikon, Melville, N.Y.) at 200× magnification (10 fields per section). The integrated optical density (IOD) of CD31 was quantified using Image-Pro Plus software.
# (§3) Macrophages or T cells were isolated from 4T1 tumors from mice sacrificed at 6 weeks post implantation or from EO771 tumors 5 weeks post implantation, using EasySep™ Mouse PE Positive Selection Kit (Stem Cell Technologies, Vancouver, BC). For cell isolation, 1×10^7-1×10^8 cells were incubated with 20 μL PE conjugated anti-F4/80 (Biolegend) for macrophages or 20 μL PE conjugated anti-CD3 for T cells and 50 μL microbeads. The T cells and macrophages were lysed in Qiazol and used for RT-PCR analysis. For ChIP assays, 5-10×10^6 macrophages were fixed in 1% formaldehyde.
# Macrophages were fixed in 1% formaldehyde. Excess formaldehyde was quenched with glycine, and the cells were collected in PBS by scraping. The cells were lysed (0.5% IGEPAL, 4 mM HEPES), and the nuclei were resuspended in nuclear lysis buffer (1% SDS, 10 mM EDTA, and 50 mM Tris, pH 8.1). The DNA was sheared by sonication using a Diagnode Bioruptor Pico (Diagenode, Denville, N.J.) for 25 cycles of 30 s on/30 s off. Then 8 μg chromatin was diluted 1:10 (0.01% SDS, 1.1% Triton X-100, 1.2 mM EDTA, 16.7 mM Tris-HCl, pH 8.1, 167 mM NaCl), and 2% of the input was removed from each sample and saved for analysis. Anti-H3K27m3 (Abcam) was added to each sample along with 20 μL of protein A+G magnetic beads (Millipore), and the samples were incubated overnight at 4° C. The beads were washed with low salt, high salt, LiCl, and TE wash buffers sequentially, and the DNA was eluted off the beads with Proteinase K at 62° C. for 2 h (elution buffer: 200 mM NaCl, 1% SDS and 50 mM Tris). The DNA was then analyzed by qPCR.
# 4T1 cells = assay: Proliferation, Ki67 staining; assay type: cell-based, mouse; conditions: 24 h
# Experimental: (§4) For Ki67 staining, 4T1 and EO771 tumor cells were seeded into 6 well plates and cultured in SF DMEM overnight. They were then treated with various concentrations of emodin (0-50 μM) for 24 h. The cells were resuspended with trypsin plus EDTA and fixed with 1% paraformaldehyde. The cells were then permeabilized with 0.25% Triton X-100 and stained with anti-Ki67 […] (Abcam). The cells were washed and incubated with goat anti-rabbit Alexa 488 (Invitrogen, Eugene, Oreg.). After washing, the samples were analyzed by flow cytometry using a BD FACS flow cytometer and CXP software version 2.2. Data were collected for 10,000 live events per sample.
# EO771 cells = assay: Proliferation, Ki67 staining; assay type: cell-based, mouse; conditions: 24 h
# Experimental: as §4
# EO771 tumors = assay: EO771 breast tumor model in C57BL/6 mice; assay type: in vivo
# Experimental: as §1, §2, §3
# [2] = 40 mg/kg IP once daily from Day 1
smiles,measurement,setting,value
Cc1cc(O)c2c(c1)C(=O)c1cc(O)cc(O)c1C2=O [emodin],macrophage response to IL4 after emodin pretreatment alone,"[1]; 50 μM 24 h, 2-d washout, IL4 6 h",significantly reduced
same,macrophage response to LPS after emodin pretreatment alone,"[1]; 50 μM 24 h, 2-d washout, LPS 6 h",no effect
same,nuclear STAT1 or STAT6 after 5 days of wash-out,[1]; IFNγ or IL4 pretreated cells with or without emodin,no significant difference
same,macrophage response to LPS after IL4 pre-treatment (crossover),[1]; co-pretreatment with emodin,did not have any effects
same,response to secondary IL-4 stimulation after IFNγ pretreatment (crossover),[1]; emodin co-pretreatment,decreased the response
same,"response to second LPS or IL-4 treatment (iNOS, Arg1 expression)","[1]; first treated with emodin 50 μM with IFNγ or IL4 24 h, 2 d or 5 d washout",significantly diminished
same,primary tumor growth,4T1 tumors; [2],significant inhibition
same,tumor weight at the endpoint,4T1 tumors; [2],significant inhibition
same,fraction of macrophages positive for pSTAT6 and C/EBPβ,4T1 tumors; 26 days post implantation,significantly reduced
same,number of macrophages in tumors,"4T1 tumors; 26 days post implantation, tumor size not different",significantly reduced
same,H3K27m3 levels on the IRF4 promoter in TAMs,4T1 tumors; ChIP-qPCR,significantly increased
same,expression of IRF4 in TAMs,"4T1 tumors; experimental endpoint, RT-qPCR",significantly decreased
same,expression of JMJD3 in TAMs,"4T1 tumors; experimental endpoint, RT-qPCR",significantly decreased
same,activated CD4+ and CD8+ T cells in draining lymph nodes,"4T1 tumors; flow cytometry, CD25",increased
same,IFNγ expression in CD3+ T cells vs control mice,4T1 tumors; qPCR,two-fold increase
same,concentrations with no significant effect on cell proliferation,4T1 cells,less than 50 μM
same,concentrations with no significant effect on cell proliferation,EO771 cells,less than 50 μM
same,primary tumor growth,EO771 tumors; [2],significant inhibition
same,tumor weight at the endpoint,EO771 tumors; [2],significant inhibition
same,M1 marker (iNOS) expression in TAMs,"EO771 tumors; F4/80+ cells from tumors, qPCR",significantly higher
same,M2 marker (Arg1 and CD206) expression in TAMs,"EO771 tumors; F4/80+ cells from tumors, qPCR",significantly lower
same,reduction of the number of tumor infiltrating macrophages (F4/80),"EO771 tumors; experimental endpoint, 40 mg/kg IP",70%
same,"CD31 staining in tumors, relative to control","EO771 tumors; microvessel density, 5 weeks post injection",~50%
same,expression of inflammatory cytokines IL1β and TNFα in TAMs,"EO771 tumors; qPCR, without statistical significance",higher expression levels

# Reference: patent publication US9795570B2, “Modulation of macrophage phenotype by emodin” (University of South Carolina, priority 2016, dated 2017)
